Values of other authors, collected in US12640239B2, “Functional biomarkers for statin therapy in age-related macular degeneration (AMD)” (APELIOTUS TECHNOLOGIES, INC., priority 2017, dated 2026).

Test system: older adults with normal retinal health or AMD
Conditions: 30-day course of 50,000 international units of oral retinol, cited from earlier work

## CC1=C(/C=C/C(C)=C/C=C/C(C)=C/CO)C(C)(C)CCC1 [retinol]
30-day follow-up, 52 per group
  Dark adaptation vs placebo group: significantly faster dark adaptation than the placebo group
30-day follow-up
  Visual acuity vs placebo group: no difference in visual acuity between the groups
After an additional 30-day washout period
  Improvement in dark adaptation after washout: reversed to the baseline level
